# Measurements: ChEMBL document CHEMBL1201862, “PubChem BioAssay data set” (2004)
# The source made the active and inactive calls.
# Tests used:
# BJ [1] = experiment: BJ-TERT fibroblast viability loss – cell-based, RAS-independent, luminescence, dose response (AID 1933); format: functional; settings: Homo sapiens
# BJ [2] = experiment: cells; format: functional, cell-based; settings: Homo sapiens
# BJ [3] = experiment: BJ-TERT-LT-ST fibroblast viability loss – cell-based, RAS-independent, luminescence, dose response (AID 1935); format: functional; settings: Homo sapiens;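 also: BJ fibroblasts immortalized with TERT plus LT and ST oncogenes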
# [4] = DRD fibroblast viability loss – cell-based, non-viral oncogenic, luminescence, dose response (AID 1934); format: functional; settings: Homo sapiens
# Galanin receptor type 3 = Galanin receptor type 3 (Homo sapiens, UniProt O60755); experiment: Fluorescence-based cell-based primary high throughput dose response assay to identify antagonists of the Galanin Receptor 3 (GalR3).; format: functional
# Galanin receptor type 3, sequence (O60755 whole entry): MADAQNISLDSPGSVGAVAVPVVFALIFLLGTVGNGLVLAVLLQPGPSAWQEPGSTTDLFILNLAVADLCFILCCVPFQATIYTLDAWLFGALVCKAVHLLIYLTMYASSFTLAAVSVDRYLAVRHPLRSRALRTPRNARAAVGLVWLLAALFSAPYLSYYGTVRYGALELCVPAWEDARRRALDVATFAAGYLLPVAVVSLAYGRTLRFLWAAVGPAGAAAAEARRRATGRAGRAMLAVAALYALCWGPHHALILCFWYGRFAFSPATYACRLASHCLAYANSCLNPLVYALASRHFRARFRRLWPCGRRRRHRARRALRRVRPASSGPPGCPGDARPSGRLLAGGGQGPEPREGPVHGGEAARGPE
# cells = format: functional, cell-based; settings: HEK-CNG
# [5] = molecular target: COUP transcription factor 2 (Homo sapiens, UniProt P24468); experiment: Luminescence-based cell-based high throughput dose response assay to identify inhibitors of COUP-TFII (NR2F2).; format: functional;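 also: HEK293 cells transiently cotransfected with COUP-TFII expression vector and reporter; luciferase reporter luminescence driven by COUP-TFII from the pX2-168 reporter plasmid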
# COUP transcription factor 2, sequence (P24468 whole entry): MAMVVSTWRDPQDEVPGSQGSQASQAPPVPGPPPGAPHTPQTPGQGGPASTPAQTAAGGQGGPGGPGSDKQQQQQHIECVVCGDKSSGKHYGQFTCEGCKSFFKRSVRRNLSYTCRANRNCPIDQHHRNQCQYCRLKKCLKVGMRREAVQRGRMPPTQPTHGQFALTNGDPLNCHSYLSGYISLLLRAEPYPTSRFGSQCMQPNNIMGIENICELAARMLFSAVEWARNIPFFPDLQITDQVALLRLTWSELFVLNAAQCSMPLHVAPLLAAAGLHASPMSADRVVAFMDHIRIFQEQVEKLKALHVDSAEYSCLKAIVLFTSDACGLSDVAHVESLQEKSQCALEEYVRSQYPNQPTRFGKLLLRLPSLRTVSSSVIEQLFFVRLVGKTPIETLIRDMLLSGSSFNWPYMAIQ
# [6] = molecular target: T1, Microphthalmia-associated transcription factor (Homo sapiens, UniProt O75030); experiment: reducers of TRPM1 reporter luminescence, concentration series – cell-based, SK-MEL-5, cherry-picked, set 3, MITF inhibitor project, dose response (AID 493073); format: functional;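 also: SK-MEL-5 melanoma cells with luciferase driven by the MITF target TRPM1 promoter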
# T1 sequence (O75030 whole entry): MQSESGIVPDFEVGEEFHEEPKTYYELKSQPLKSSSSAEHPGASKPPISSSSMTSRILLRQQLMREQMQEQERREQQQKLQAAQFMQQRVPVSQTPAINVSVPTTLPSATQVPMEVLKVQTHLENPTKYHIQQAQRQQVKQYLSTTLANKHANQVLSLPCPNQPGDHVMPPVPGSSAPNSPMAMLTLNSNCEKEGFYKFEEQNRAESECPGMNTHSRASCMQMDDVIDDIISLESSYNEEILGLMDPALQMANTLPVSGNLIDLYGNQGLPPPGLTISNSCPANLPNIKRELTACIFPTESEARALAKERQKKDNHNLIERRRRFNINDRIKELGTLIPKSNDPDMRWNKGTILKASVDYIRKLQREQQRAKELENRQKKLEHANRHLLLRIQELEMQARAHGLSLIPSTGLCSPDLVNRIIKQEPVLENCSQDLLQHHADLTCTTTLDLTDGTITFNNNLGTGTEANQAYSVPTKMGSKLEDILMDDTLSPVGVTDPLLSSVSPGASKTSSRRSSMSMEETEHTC
# [7] = Fluorescence-based cell-based high throughput dose response assay for inhibitors of the interaction of nucleotide-binding oligomerization domain containing 2 (NOD2) and the receptor-interacting serine-threonine kinase 2 (RIPK2).; format: functional; settings: Homo sapiens
# Paired box protein Pax-8 = Paired box protein Pax-8 (Homo sapiens, UniProt Q06710); experiment: PAX8 transcriptional activity inhibition in RMG-I – RMG-I cells, luciferase, cherry-pick, dose response (AID 687027); format: functional, cell-based;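 also: luciferase reporter driven by Pax8 target thyroperoxidase promoter measured by SteadyGlo luminescence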
# Paired box protein Pax-8, sequence (Q06710 whole entry): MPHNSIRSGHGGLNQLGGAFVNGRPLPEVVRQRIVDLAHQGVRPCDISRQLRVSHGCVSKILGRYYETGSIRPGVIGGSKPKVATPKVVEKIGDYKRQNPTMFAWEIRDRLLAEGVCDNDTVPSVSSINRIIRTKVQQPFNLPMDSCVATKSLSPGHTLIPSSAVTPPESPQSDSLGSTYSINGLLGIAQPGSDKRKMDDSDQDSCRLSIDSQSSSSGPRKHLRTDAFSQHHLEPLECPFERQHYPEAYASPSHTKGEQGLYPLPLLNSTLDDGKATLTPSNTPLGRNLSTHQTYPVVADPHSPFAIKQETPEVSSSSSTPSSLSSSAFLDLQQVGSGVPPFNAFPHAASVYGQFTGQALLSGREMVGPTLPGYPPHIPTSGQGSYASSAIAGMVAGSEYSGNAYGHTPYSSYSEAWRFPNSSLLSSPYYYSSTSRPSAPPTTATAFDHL
# [8] = reduced cellular PGC1a acetyl-lysine signal – cell-based, cherry-picked samples, dose response (AID 720514); format: functional;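 also: potency may reflect raised or lowered acetylation signal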
# [9] = microbe, parasite or virus in culture; format: functional; settings: Mycobacterium tuberculosis
# [10] = Luminescence Cell-Based Dose Retest to Confirm Inhibitors of Cancer Stem Cells. [Related pubchem assays (depositor defined):AID2717, AID2721]; format: functional; settings: Homo sapiens
# INS1 = experiment: INS-1E survival protection against cytokine death – cell-based, luminescence, retest, dose response (AID 449756); format: functional; settings: Rattus norvegicus;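 also: cell death triggered by IL-1 beta plus TNF-alpha plus IFN-gamma mixture; protective hits raise ATP signal compared with cytokine alone wells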
# [11] = A549 cell cytotoxicity, dose response, cytotoxicity control, plate reader, cherry-pick, antagonist series (AID 743412); format: functional, cell-based
# [12] = toxicity toward HepG2 liver cells – cell-based, plate reader, cherry-pick, antagonist series, cytotoxicity control, dose response (AID 743416); format: functional
# [13] = blockers of bursicon-stimulated LGR2 cAMP reporter – cell-based, HEK293, CRE-luciferase reporter, cherry pick, set 2, dose response (AID 743343); format: functional;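 also: transfected cells were stimulated with diluted bursicon conditioned medium after compound addition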
# [14] = blockade of melanocortin 4 receptor signaling – cell-based, plate reader, cherry pick, counter-screen for LGR2 antagonist project, dose response (AID 743444); format: functional;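 also: transfected HEK 293 cells stimulated with alpha-MSH peptide; potency of inhibitors of the alpha-MSH evoked signal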
# [15] = viability loss in HEK293 cells – cell-based, plate reader, cherry-picked samples, cytotoxicity control, dose response (AID 743446); format: functional
# [16] = molecular target: T2, Sentrin-specific protease 8 (Homo sapiens, UniProt Q96LD8); format: functional
# T2 sequence (Q96LD8 whole entry): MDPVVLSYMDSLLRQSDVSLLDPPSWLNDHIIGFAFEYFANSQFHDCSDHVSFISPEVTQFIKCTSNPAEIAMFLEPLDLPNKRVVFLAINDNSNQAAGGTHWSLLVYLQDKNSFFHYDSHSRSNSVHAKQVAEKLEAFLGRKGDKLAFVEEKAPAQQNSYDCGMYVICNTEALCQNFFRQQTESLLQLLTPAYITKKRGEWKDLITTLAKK
# [17] = molecular target: T2, Sentrin-specific protease 8; format: functional; remark: listed apart in the source
# Caspase-6 = molecular target: T3, Caspase-6 (Homo sapiens, UniProt P55212); experiment: inhibition of CASP6 peptide cleavage – biochemical, VEID-R110 fluorescence, cherry-pick, dose response (AID 720632)
# T3 sequence (P55212 whole entry): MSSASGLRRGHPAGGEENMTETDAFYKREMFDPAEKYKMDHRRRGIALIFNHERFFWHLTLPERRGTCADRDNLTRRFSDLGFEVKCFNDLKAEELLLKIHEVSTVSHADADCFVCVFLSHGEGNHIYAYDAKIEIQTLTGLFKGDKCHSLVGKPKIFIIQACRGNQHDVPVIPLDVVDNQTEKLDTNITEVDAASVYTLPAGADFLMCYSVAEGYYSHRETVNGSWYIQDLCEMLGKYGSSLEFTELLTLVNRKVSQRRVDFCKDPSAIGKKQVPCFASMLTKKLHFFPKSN
# Caspase-9 = molecular target: T4, Caspase-9 (Homo sapiens, UniProt P55211); experiment: inhibitors of purified CASP9 protease – biochemical, fluorescence, plate reader, cherry-picked samples, selectivity assay for caspase-6 inhibitor project, dose response (AID 743293)
# T4 sequence (P55211 whole entry): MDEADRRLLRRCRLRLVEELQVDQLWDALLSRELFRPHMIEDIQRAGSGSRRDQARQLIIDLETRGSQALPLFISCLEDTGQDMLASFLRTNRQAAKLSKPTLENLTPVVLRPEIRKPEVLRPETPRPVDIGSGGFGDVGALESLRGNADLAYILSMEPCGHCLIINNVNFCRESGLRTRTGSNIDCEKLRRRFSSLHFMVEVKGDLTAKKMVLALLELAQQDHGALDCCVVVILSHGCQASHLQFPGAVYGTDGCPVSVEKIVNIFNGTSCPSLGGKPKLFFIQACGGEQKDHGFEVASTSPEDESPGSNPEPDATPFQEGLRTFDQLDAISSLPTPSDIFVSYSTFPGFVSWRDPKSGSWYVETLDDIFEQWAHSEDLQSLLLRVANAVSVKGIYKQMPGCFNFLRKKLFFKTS
# [18] = molecular target: T5, Histone-lysine N-methyltransferase NSD2 (Homo sapiens, UniProt O96028); format: biochemical
# T5 sequence (O96028 whole entry): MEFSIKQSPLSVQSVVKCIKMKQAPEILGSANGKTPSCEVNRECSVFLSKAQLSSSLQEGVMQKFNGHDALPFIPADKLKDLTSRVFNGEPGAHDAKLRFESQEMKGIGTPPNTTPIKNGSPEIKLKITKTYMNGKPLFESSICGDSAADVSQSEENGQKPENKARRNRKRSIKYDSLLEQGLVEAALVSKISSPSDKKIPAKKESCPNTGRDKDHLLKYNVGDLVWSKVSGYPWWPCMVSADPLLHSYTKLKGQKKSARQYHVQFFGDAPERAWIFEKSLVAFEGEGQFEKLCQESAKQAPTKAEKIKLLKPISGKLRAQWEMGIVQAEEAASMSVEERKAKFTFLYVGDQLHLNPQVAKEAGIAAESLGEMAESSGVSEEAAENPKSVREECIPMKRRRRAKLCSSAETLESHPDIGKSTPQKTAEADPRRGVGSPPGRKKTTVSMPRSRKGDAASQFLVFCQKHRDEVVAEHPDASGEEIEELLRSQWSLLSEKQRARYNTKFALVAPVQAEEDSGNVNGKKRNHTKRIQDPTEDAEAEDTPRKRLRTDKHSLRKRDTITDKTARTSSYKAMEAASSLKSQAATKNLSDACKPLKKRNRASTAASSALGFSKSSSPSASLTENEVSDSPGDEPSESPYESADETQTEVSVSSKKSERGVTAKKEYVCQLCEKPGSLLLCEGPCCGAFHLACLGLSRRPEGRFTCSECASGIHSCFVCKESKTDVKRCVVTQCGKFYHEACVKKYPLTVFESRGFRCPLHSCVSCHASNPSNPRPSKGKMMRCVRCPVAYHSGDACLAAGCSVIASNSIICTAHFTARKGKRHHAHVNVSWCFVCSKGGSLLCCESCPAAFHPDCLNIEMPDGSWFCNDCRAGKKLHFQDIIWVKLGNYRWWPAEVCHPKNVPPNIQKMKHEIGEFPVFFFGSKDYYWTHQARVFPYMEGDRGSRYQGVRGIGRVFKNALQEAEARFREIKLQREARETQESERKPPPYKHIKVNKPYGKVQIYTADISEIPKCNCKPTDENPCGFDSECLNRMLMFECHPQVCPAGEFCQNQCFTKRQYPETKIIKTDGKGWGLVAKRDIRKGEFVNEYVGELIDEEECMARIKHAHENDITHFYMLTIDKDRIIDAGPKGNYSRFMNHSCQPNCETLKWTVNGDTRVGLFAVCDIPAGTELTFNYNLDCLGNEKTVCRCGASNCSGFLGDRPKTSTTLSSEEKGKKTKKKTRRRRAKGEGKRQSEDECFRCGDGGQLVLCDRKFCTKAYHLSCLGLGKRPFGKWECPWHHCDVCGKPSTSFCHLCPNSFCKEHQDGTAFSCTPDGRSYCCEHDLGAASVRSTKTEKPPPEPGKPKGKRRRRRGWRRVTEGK
# Caspase-7 = Caspase-7 (Homo sapiens, UniProt P55210); experiment: caspase-7 enzyme inhibition, selectivity check – biochemical, DEVD-R110 fluorescence, cherry-pick, selectivity assay for caspase-6 inhibitor project, dose response (AID 743295); format: functional
# Caspase-7, sequence (P55210 24-198 limits assumed): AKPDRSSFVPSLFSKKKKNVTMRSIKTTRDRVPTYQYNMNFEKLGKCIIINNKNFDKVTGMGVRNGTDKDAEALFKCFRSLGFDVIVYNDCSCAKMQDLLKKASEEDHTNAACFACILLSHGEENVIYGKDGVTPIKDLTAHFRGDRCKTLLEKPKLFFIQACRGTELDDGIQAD
# Caspase-7, sequence (P55210 207-303 limits assumed): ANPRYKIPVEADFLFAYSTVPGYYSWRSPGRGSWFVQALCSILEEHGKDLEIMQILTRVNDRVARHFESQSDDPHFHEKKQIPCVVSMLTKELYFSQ
# Caspase-8 = Caspase-8 (Homo sapiens, UniProt Q14790); experiment: inhibitors of purified CASP8 protease – biochemical, Z-IETD-R110 fluorescence, cherry-picked samples, selectivity assay for caspase-6 inhibitor project, dose response (AID 743294)
# Caspase-8, sequence (Q14790 217-374 limits assumed): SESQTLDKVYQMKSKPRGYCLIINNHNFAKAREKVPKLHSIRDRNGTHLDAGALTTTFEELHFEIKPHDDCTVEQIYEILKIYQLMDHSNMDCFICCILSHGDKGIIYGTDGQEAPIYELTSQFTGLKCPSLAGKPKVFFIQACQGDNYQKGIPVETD
# Caspase-8, sequence (Q14790 385-479 limits assumed): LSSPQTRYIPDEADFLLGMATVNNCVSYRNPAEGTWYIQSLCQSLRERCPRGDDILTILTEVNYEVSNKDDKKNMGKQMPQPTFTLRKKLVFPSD
# Caspase-3 = molecular target: T6, Caspase-3 (Homo sapiens, UniProt P42574); experiment: human caspase-3 protease activity blockade – biochemical, fluorescence, cherry-picked samples, selectivity assay for caspase-6 allosteric inhibitor project, dose response (AID 743291)
# T6 sequence (P42574 whole entry): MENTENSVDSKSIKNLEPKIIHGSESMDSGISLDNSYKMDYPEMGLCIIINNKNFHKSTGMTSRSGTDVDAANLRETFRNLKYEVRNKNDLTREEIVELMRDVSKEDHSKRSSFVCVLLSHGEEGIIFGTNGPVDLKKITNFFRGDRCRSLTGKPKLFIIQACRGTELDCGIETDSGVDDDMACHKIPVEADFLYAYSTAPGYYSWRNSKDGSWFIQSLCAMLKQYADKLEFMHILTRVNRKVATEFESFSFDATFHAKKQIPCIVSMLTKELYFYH
# [19] = molecular target: NAD-dependent protein deacylase sirtuin-5, mitochondrial (Homo sapiens, UniProt Q9NXA8); experiment: sirtuin-5 deacylation blockers, concentration series – biochemical, fluorescence imaging, cherry-pick, set 5, dose response (AID 720591);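 also: desuccinylation of succinyl peptide AMC substrate read as fluorescence after trypsin release; potency of inhibitors that lower fluorescence and may act on trypsin instead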
# NAD-dependent protein deacylase sirtuin-5, mitochondrial, sequence (Q9NXA8 whole entry): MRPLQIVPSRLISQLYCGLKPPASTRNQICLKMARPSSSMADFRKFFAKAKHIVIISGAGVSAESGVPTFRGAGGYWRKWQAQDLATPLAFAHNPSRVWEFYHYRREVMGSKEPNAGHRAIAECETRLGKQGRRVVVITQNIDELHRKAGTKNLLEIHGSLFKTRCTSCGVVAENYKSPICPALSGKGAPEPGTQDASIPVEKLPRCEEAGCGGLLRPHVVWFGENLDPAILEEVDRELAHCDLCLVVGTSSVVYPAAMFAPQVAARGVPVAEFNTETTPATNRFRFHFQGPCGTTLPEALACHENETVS
# [20] = A2780 cell killing – plate reader, dry powder samples, cytotoxicity control, dose response (AID 743046); format: functional, cell-based
# [21] = OVCAR-3 cell viability loss – plate reader, dry powder samples, PAX8 inhibitor project, dose response (AID 743044); format: functional, cell-based
structure (smiles),measurement,setting,value
COc1ccccc1N1C(C)=CC(=Cc2sc3ccccc3[n+]2C)C=C1C,EC50,BJ [1],3.07 µM (inconclusive)
same,EC50,BJ [2],2.54 µM (active)
same,EC50,BJ [3],3.16 µM (inconclusive)
same,EC50,[4],6.24 µM (active)
same,IC50,Galanin receptor type 3,0.128 µM (active)
same,EC50,cells,> 29.9 µM (inactive)
same,IC50,[5],0.617 µM (active)
Cc1ccc(NC(=O)Cn2ncc(Cl)c(Cl)c2=O)cc1S(=O)(=O)N1CCCCC1,AC50,[6],13.7 µM (active)
same,IC50,[7],2.88 µM (active)
same,AC50,Paired box protein Pax-8,4.58 µM (active)
same,AC50,[8],7.27 µM (active)
Cn1nnnc1Sc1ncnc2scc(-c3cc4ccccc4o3)c12,CC50,[9],7.67 µM (active)
same,AC50,[10],1.41 µM (active)
same,AC50,INS1,6 µM (active)
same,AC50,Paired box protein Pax-8,3.12 µM (active)
same,AC50,[8],4.29 µM (active)
same,AC50,[11],8.38 µM (active)
same,AC50,[12],7.37 µM (active)
same,AC50,[13],4.7 µM (active)
same,AC50,[14],4.18 µM (active)
same,AC50,[15],7.82 µM (active)
COc1cc(N(C(C)=O)c2ccc(O)c(C(=O)O)c2)c2ncccc2c1,IC50,[16],7.7 µM (active)
same,IC50,[17],9.87 µM (active)
same,AC50,Caspase-6,3.48 µM (active)
same,AC50,Caspase-9,45.4 µM (active)
same,AC50,[18],6.27 µM (active)
same,AC50,Caspase-7,20.1 µM (active)
same,AC50,Caspase-8,49.5 µM (active)
same,AC50,Caspase-3,13.8 µM (active)
COc1ccc(-n2nnnc2C(c2cc3ccccc3o2)N2CCC(n3c(O)nc4ccccc43)CC2)cc1 (centres undefined),IC50,[5],6.4 µM (active)
same,AC50,[11],38.9 µM (active)
same,AC50,[12],4.45 µM (active)
same,AC50,[13],13.7 µM (active)
same,AC50,[14],14.3 µM (active)
same,AC50,[15],8.29 µM (active)
COc1cc(Nc2ncc3c(n2)CCN(C(=O)Nc2ccc(C(C)C)cc2)C3)cc(OC)c1OC,AC50,[19],17 µM (active)
C[C@@H]1CN([C@H](C)CO)C(=O)c2cc(NS(=O)(=O)c3ccc(Cl)cc3)ccc2O[C@@H](C)CCCCO[C@@H]1CN(C)Cc1ccc(Cl)c(Cl)c1,AC50,Paired box protein Pax-8,11.7 µM (active)
same,AC50,[20],2.73 µM (active)
same,AC50,[21],49.5 µM (active)
